Experimental data taken from patent publication US20230348450A1, “CARBOXYLIC ACID-CONTAINING COMPOUNDS AS MODULATORS OF BIS-PHOSPHOGLYCERATE MUTASE FOR THE TREATMENT OF SICKLE CELL DISEASE” (Genzyme Corporation, priority 2020, published 2023).

What was measured:
hBPGM = hBPGM (Homo sapiens (Human), UniProt P07738); experiment: BPGM Synthase Assay; format: biochemical; settings: Table 6 additional results; read-out: huBPGM: synthase Enzyme IC50
In short: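 BPGM (5 nM) with GAPDH (0.4 U/mL) was incubated with compound for 30 min at RT in pH 7.4 Tris buffer with 3.23 mM KH2PO4 and 1 mM DTT. Reaction ran 60 min with NAD, 3PG and GAP (substrate solution 2 mM, 20 μM and 800 μM). After koningic acid stop, NADH fluorescence was read, then resorufin from diaphorase/resazurin coupling.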

[1] = target: human Bisphosphoglycerate mutase (hBPGM) (Homo sapiens (Human), UniProt P07738); experiment: BPGM Phosphatase Assay; format: biochemical; settings: Table 6 additional results; read-out: huBPGM: phosphatase Enzyme EC50
Method: Solutions of the test compounds were then added to the plate and the DMSO content was normalized across the plate. The plate was incubated at RT for 15 min. Next, the substrate 2,3-BPG (5 μL) was added to all the wells, and the plate was sealed and incubated for 24 hr at RT. After incubation, BIOMOL green dye (40 μL) was added to all the wells, the plate was shaken to mix, and the plate was incubated at RT for 20-30 min.

Sequence of hBPGM (P07738 whole entry, looked up): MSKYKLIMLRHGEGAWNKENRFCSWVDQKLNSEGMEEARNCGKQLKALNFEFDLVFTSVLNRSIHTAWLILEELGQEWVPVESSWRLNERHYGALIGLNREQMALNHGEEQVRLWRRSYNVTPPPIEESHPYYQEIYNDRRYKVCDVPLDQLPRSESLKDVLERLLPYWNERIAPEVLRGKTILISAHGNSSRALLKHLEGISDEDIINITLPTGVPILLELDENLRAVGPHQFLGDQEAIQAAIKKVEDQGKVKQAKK
Sequence of human Bisphosphoglycerate mutase (hBPGM) (P07738 whole entry): as the sequence (P07738 whole entry, looked up) above

SMILES | IC50 (hBPGM) [nM] | EC50 [1] [nM]
Cc1nc(Cc2ccccc2)sc1-c1csc(-c2cc(O)c(C(=O)O)cc2F)n1 [Example 182] | 560 | 50
COC(=O)NC(C)c1nc(C)c(-c2csc(-c3cc(O)c(C(=O)O)cc3F)n2)s1 (stereo not shown) [Example 188] | 55 | 160
Cc1nc(CO)sc1-c1cccc(-c2cc(C(=O)O)cs2)n1 [Example 75] | 4600 | > 25000
COC(=O)NCc1nc(C)c(-c2csc(-c3cc(O)c(C(=O)O)cc3F)c2)s1 [Example 161] | 59 | 79
Cc1cccnc1OCc1nc(C)c(-c2cccc(-c3ccc(C(=O)O)c(O)c3)c2)s1 [Example 86] | 1500 | 200
Cc1nc(CNC(=O)C(C)(C)N(C)C)sc1-c1csc(-c2cc(O)c(C(=O)O)cc2F)n1 [Example 123] | 530 | 9700
Cc1nc(CNC(=O)c2cccnn2)sc1-c1cccc(-c2cc(O)c(C(=O)O)cc2F)n1 [Example 153] | 99 | 70
Cc1ccc(Cc2nc(C)c(-c3csc(-c4cc(O)c(C(=O)O)cc4F)c3)s2)cn1 [Example 98] | 170 | 100
COC(=O)NCc1nc(C)c(-c2cccc(-c3cc(O)c(C(=O)O)cc3F)n2)s1 [Example 235] | 110 | 140
Cc1nc(COc2ncccn2)sc1-c1cccc(-c2ccc(C(=O)O)c(O)c2)c1 [Example 142] | 190 | 130
Cc1nc(C)c(-c2csc(-c3cc(O)c(C(=O)O)cc3F)n2)s1 [Example 285] | 320 | 400
Cc1nc(NCC(=O)N(C)C)sc1-c1csc(-c2cc(O)c(C(=O)O)cc2F)n1 [Example 178] | 200 | 3100
Cc1nc(Cn2ccccc2=O)sc1-c1cccc(-c2ccc(C(=O)O)c(O)c2)n1 [Example 101] | 760 | 7300
COC(=O)NCc1nc(C)c(-c2csc(-c3ccc(C(=O)NS(=O)(=O)c4ccc(OCC(=O)O)cc4)cc3)n2)s1 [Example 66] | 61 | 110
Cc1nc(CNC(=O)C2CCC2)sc1-c1csc(-c2cc(O)c(C(=O)O)cc2F)n1 [Example 220] | 52 | 63
Cc1nc(C)c(-c2csc(-c3ccc(C(=O)O)c(O)c3)c2)s1 [Example 274] | 430 | 390
Cc1nc(CNC(=O)OC(C)C)sc1-c1csc(-c2cc(O)c(C(=O)O)cc2F)n1 [Example 234] | 84 | 80
Cc1nc(CNCC(C)(C)C)sc1-c1csc(-c2cc(O)c(C(=O)O)cc2F)n1 [Example 147] | 610 | 50
Cc1nc(COc2ccc(C#N)cn2)sc1-c1cccc(-c2ccc(C(=O)O)c(O)c2)c1 [Example 93] | 3300 | 270
Cc1nc(CNC(=O)C2COC2)sc1-c1cccc(-c2ccc(C(=O)O)c(O)c2)c1 [Example 247] | 1000 | 3900
Cc1nc(CNCC(=O)N(C)C)sc1-c1csc(-c2cc(O)c(C(=O)O)cc2F)n1 [Example 169] | 480 | 110
COC(=O)NCc1nc(C)c(-c2csc(-c3cc(O)c(C(=O)O)cc3F)n2)s1 [Example 209] | 250 | 470
Cc1nc(COc2ncccn2)sc1-c1cccc(-c2cc(O)c(C(=O)O)cc2F)n1 [Example 129] | 40 | 40
Cc1nc(C(C)NC(=O)C(C)(C)C)sc1-c1csc(-c2cc(O)c(C(=O)O)cc2F)n1 (stereo not shown) [Example 141] | 130 | 70
Cc1nc(CNC(=O)C(C)CN(C)C)sc1-c1csc(-c2cc(O)c(C(=O)O)cc2F)n1 (stereo not shown) [Example 117] | 170 | 8700

SMILES | IC50 (hBPGM) [nM] | EC50 [1] [nM]
COC(=O)NCc1nc(C)c(-c2nsc(-c3ccc(C(=O)O)c(O)c3)n2)s1 [Example 193] | 170 | 360
Cc1nc(Cc2cccnc2)sc1-c1cccc(-c2cc(O)c(C(=O)O)cc2F)n1 [Example 217] | 110 | 120
Cc1nc(COc2ncccn2)sc1-c1cccc(-c2ccc(C(=O)O)cc2F)n1 [Example 83] | 360 | 1400
Cc1nc(C)c(-c2nc(-c3ccc(C(=O)O)c(O)c3)co2)s1 [Example 275] | 5000 | > 25000
Cc1nc(Cn2cccnc2=O)sc1-c1csc(-c2cc(O)c(C(=O)O)cc2F)n1 [Example 181] | 210 | 80
COC(=O)NCc1nc(C)c(-c2csc(-c3cc(O)c(C(=O)O)cc3C)n2)s1 [Example 130] | 70 | 40
Cc1nc(Cc2cccnc2)sc1-c1cccc(-c2ccc(C(=O)O)c(O)c2)c1 [Example 273] | 390 | 170
Cc1cnc(OCc2nc(C)c(-c3csc(-c4cc(O)c(C(=O)O)cc4F)n3)s2)nc1 [Example 132] | 45 | 50
Cc1nc(C)c(-c2csc(-c3ccc(C(=O)O)c(O)c3)n2)s1 [Example 184] | 1500 | 80
Cc1nc(CNC(=O)N2CCCC2)sc1-c1csc(-c2cc(O)c(C(=O)O)cc2F)n1 [Example 198] | 50 | 190
Cc1nc(COc2ccccn2)sc1-c1csc(-c2cc(O)c(C(=O)O)cc2F)n1 [Example 163] | 170 | 60
CC(=O)NCc1nc(C)c(-c2cccc(-c3ccc(C(=O)O)c(O)c3)c2)s1 [Example 278] | 900 | 2100
Cc1nc(C)c(-c2cc(-c3cc(O)c(C(=O)O)cc3F)sn2)s1 [Example 183] | 660 | 280
Cc1nc(Cc2ccn(C)n2)sc1-c1csc(-c2ccc(C(=O)O)c(O)c2)n1 [Example 189] | 120 | 330
Cc1ccnc(OCc2nc(C)c(-c3csc(-c4cc(O)c(C(=O)O)cc4F)n3)s2)n1 [Example 133] | 50 | 80
COC(=O)NCc1nc(C)c(-c2csc(-c3cc(O)c(C(=O)NCC(=O)O)cc3F)n2)s1 [Example 191] | 780 | 570
Cc1nc(C)c(-c2nsc(-c3ccc(C(=O)O)c(O)c3)n2)s1 [Example 283] | 1300 | 6500
Cc1nc(CNC2CCOCC2)sc1-c1cccc(-c2ccc(C(=O)O)cc2)c1 [Example 51] | 21000 | 4300
Cc1nc(COc2cccc(N)n2)sc1-c1csc(-c2cc(O)c(C(=O)O)cc2F)n1 [Example 204] | 270 | 250
COC(=O)NCc1nc(C)c(-c2csc(-c3ccc(C(=O)O)cc3F)n2)s1 [Example 238] | 1300 | > 25000
Cc1nc(CNc2ccccn2)sc1-c1cccc(-c2ccc(C(=O)O)c(O)c2)c1 [Example 246] | 820 | 110
Cc1nc(COc2ncccn2)sc1-c1cccc(-c2ccc(C(=O)O)s2)n1 [Example 88] | 1000 | 12000
Cc1nc(Cn2cccn2)sc1-c1csc(-c2cc(O)c(C(=O)O)cc2F)c1 [Example 229] | 190 | 30
Cc1nc(Cc2ccn(C)n2)sc1-c1cccc(-c2ccc(C(=O)O)c(O)c2)c1 [Example 253] | 190 | 150
Cc1nc(CNc2ncccn2)sc1-c1cccc(-c2ccc(C(=O)O)cc2)n1 [Example 63] | 630 | > 25000
